{"source": "patent US20100151062A1", "about": "“Determining nutrients for animals through gene expression” (priority 2008, published 2010)", "tested_on": "cartilage cells of individual affected unhealthy dogs", "experiment": "In vitro culture of cartilage cells of affected dogs with curcumin or andrographolide, microarray", "type": "cell-based, dog", "conditions": "mean; for Fold change of gene expression, ACTB / Fold change of gene expression, ACTR3 / Fold change of gene expression, ADK / Fold change of gene expression, ANKRD10 / Fold change of gene expression, CAV1 / Fold change of gene expression, CDH11 / Fold change of gene expression, COL3A1 / Fold change of gene expression, COX1 / Fold change of gene expression, COX2 / Fold change of gene expression, IGFBP7 / Fold change of gene expression, IL2 / Fold change of gene expression, MMP2 / Fold change of gene expression, NOS2 / Fold change of gene expression, PTGS-2 / Fold change of gene expression, SPARC / Fold change of gene expression, STMN1 / Fold change of gene expression, TIMP1 / Fold change of gene expression, TIMP2 / Fold change of gene expression, TNF-a / Fold change of gene expression, TUBA / Fold change of gene expression, TUBB: 60 mg/l vs 0, 6 hours, cartilage cells of affected dogs; for Fold change of gene expression, ACTB / Net effect of the NBC on fold change, ACTB: gene ACTB; for Net effect of the NBC on fold change, ACTB / Net effect of the NBC on fold change, ACTR3 / Net effect of the NBC on fold change, ADK / Net effect of the NBC on fold change, ANKRD10 / Net effect of the NBC on fold change, CAV1 / Net effect of the NBC on fold change, CDH11 / Net effect of the NBC on fold change, COL3A1 / Net effect of the NBC on fold change, COX1 / Net effect of the NBC on fold change, COX2 / Net effect of the NBC on fold change, IGFBP7 / Net effect of the NBC on fold change, IL2 / Net effect of the NBC on fold change, MMP2 / Net effect of the NBC on fold change, NOS2 / Net effect of the NBC on fold change, PTGS-2 / Net effect of the NBC on fold change, SPARC / Net effect of the NBC on fold change, STMN1 / Net effect of the NBC on fold change, TIMP1 / Net effect of the NBC on fold change, TIMP2 / Net effect of the NBC on fold change, TNF-a / Net effect of the NBC on fold change, TUBA / Net effect of the NBC on fold change, TUBB: 60 mg/l, 6 hours; for Fold change of gene expression, ACTR3 / Net effect of the NBC on fold change, ACTR3: gene ACTR3; for Fold change of gene expression, ADK / Net effect of the NBC on fold change, ADK: gene ADK; for Fold change of gene expression, ANKRD10 / Net effect of the NBC on fold change, ANKRD10: gene ANKRD10; for Fold change of gene expression, CAV1 / Net effect of the NBC on fold change, CAV1: gene CAV1; for Fold change of gene expression, CDH11 / Net effect of the NBC on fold change, CDH11: gene CDH11; for Fold change of gene expression, COL3A1 / Net effect of the NBC on fold change, COL3A1: gene COL3A1; for Fold change of gene expression, COX1 / Net effect of the NBC on fold change, COX1: gene COX1; for Fold change of gene expression, COX2 / Net effect of the NBC on fold change, COX2: gene COX2; for Fold change of gene expression, IGFBP7 / Net effect of the NBC on fold change, IGFBP7: gene IGFBP7; for Fold change of gene expression, IL2 / Net effect of the NBC on fold change, IL2: gene IL2; for Fold change of gene expression, MMP2 / Net effect of the NBC on fold change, MMP2: gene MMP2; for Fold change of gene expression, NOS2 / Net effect of the NBC on fold change, NOS2: gene NOS2; for Fold change of gene expression, PTGS-2 / Net effect of the NBC on fold change, PTGS-2: gene PTGS-2; for Fold change of gene expression, SPARC / Net effect of the NBC on fold change, SPARC: gene SPARC; for Fold change of gene expression, STMN1 / Net effect of the NBC on fold change, STMN1: gene STMN1; for Fold change of gene expression, TIMP1 / Net effect of the NBC on fold change, TIMP1: gene TIMP1; for Fold change of gene expression, TIMP2 / Net effect of the NBC on fold change, TIMP2: gene TIMP2; for Fold change of gene expression, TNF-a / Net effect of the NBC on fold change, TNF-a: gene TNF-a; for Fold change of gene expression, TUBA / Net effect of the NBC on fold change, TUBA: gene TUBA; for Fold change of gene expression, TUBB / Net effect of the NBC on fold change, TUBB: gene TUBB", "procedure": "Total RNA of cells was extracted using phenol/guanidine HCl reagents (Trizol, Invitrogen). RNA quality integrity was analysed using the Agilent 2100 Bioanalyser (Agilent Technologies) of the sample. The samples determined to have no, or minimal, loss of integrity and thus were considered suitable for use in experiments. mRNA was amplified for each sample, starting with 500 ng total RNA using a commercially available kit (Ambion T7 MEGAscript high yield transcription kit, Ambion). The mRNA was quantified using a spectrophotometer. mRNA was directly reverse transcribed to cDNA from 25 μg of total RNA using the Superscript indirect cDNA labeling Core kit (Invitrogen, Milan, Italy).\nTwo micrograms of cDNA were labelled with Cyanine-3dCTP (Cy3) or Cyanine-5dCTP (Cy5) fluorochromes using the cDNA labeling purification module kit (Invitrogen, Milan, Italy). Samples were hybridised to a canine specific, whole genome 44k spot 60mer oligonucleotide (Agilent Technologies). The labelled cDNA was appropriately coupled and used for competitive hybridization on the same microarray at 42° C. for 16 h. Fluorescence incorporation was determined using a spectrophotometer. The relative intensity of labelled cDNA in was acquired with ScanArray LITE scanner (PerkinElmer Life Sciences, Inc).\nExpression data were then exported into Excel 2007 and processed with SAM software; comparison between groups was achieved using paired student's t tests. […] Correction for multiple hypothesis testing was performed using the false discovery rate (FDR).\nSearching within the nutrient data set for biologically active nutrients with anti-arthritic and anti-inflammatory properties identified curcumin and androgropholide as the appropriated compositions. The cartilage cells of individual affected unhealthy dogs were cultured in vitro with 0, or 60 mg/l of curcumin or androgropholide for 6 hours. At the end of the incubation, these cartilage cells from individual affected dogs were washed and used for RNA extraction. For the microarray analysis, co-hybridisation of the RNA from 0 and 60 mg/l was conducted, using the material and the methods described previously."}
{"compound": "C=C1CC[C@@H]2[C@](C)(CO)[C@H](O)CC[C@@]2(C)[C@@H]1C/C=C1/C(=O)OC[C@H]1O", "note": "[Androgrpholide]", "values": [{"measurement": "Fold change of gene expression, ACTB", "result": "−1.0"}, {"measurement": "Net effect of the NBC on fold change, ACTB", "result": 2.8}, {"measurement": "Fold change of gene expression, ACTR3", "result": 1.0}, {"measurement": "Net effect of the NBC on fold change, ACTR3", "result": 1.3}, {"measurement": "Fold change of gene expression, ADK", "result": 0.0}, {"measurement": "Net effect of the NBC on fold change, ADK", "result": 3.6}, {"measurement": "Fold change of gene expression, ANKRD10", "result": 0.0}, {"measurement": "Net effect of the NBC on fold change, ANKRD10", "result": 5.2}, {"measurement": "Fold change of gene expression, CAV1", "result": 0.0}, {"measurement": "Net effect of the NBC on fold change, CAV1", "result": 4.8}, {"measurement": "Fold change of gene expression, CDH11", "result": "−1.0"}, {"measurement": "Net effect of the NBC on fold change, CDH11", "result": 5.9}, {"measurement": "Fold change of gene expression, COL3A1", "result": "−2.0"}, {"measurement": "Net effect of the NBC on fold change, COL3A1", "result": 7.5}, {"measurement": "Fold change of gene expression, COX1", "result": 0.0}, {"measurement": "Net effect of the NBC on fold change, COX1", "result": 0.8}, {"measurement": "Fold change of gene expression, COX2", "result": 0.0}, {"measurement": "Net effect of the NBC on fold change, COX2", "result": 23.0}, {"measurement": "Fold change of gene expression, IGFBP7", "result": "−2.0"}, {"measurement": "Net effect of the NBC on fold change, IGFBP7", "result": 1.7}, {"measurement": "Fold change of gene expression, IL2", "result": "−6.0"}, {"measurement": "Net effect of the NBC on fold change, IL2", "result": "−3.0"}, {"measurement": "Fold change of gene expression, MMP2", "result": "−5.0"}, {"measurement": "Net effect of the NBC on fold change, MMP2", "result": 5.0}, {"measurement": "Fold change of gene expression, NOS2", "result": "−6.0"}, {"measurement": "Net effect of the NBC on fold change, NOS2", "result": "−5.8"}, {"measurement": "Fold change of gene expression, PTGS-2", "result": "−5.0"}, {"measurement": "Net effect of the NBC on fold change, PTGS-2", "result": "−3.8"}, {"measurement": "Fold change of gene expression, SPARC", "result": 0.0}, {"measurement": "Net effect of the NBC on fold change, SPARC", "result": 6.3}, {"measurement": "Fold change of gene expression, STMN1", "result": 0.0}, {"measurement": "Net effect of the NBC on fold change, STMN1", "result": 6.2}, {"measurement": "Fold change of gene expression, TIMP1", "result": 0.0}, {"measurement": "Net effect of the NBC on fold change, TIMP1", "result": 6.2}, {"measurement": "Fold change of gene expression, TIMP2", "result": 0.0}, {"measurement": "Net effect of the NBC on fold change, TIMP2", "result": 2.0}, {"measurement": "Fold change of gene expression, TNF-a", "result": "−8.0"}, {"measurement": "Net effect of the NBC on fold change, TNF-a", "result": 2.0}, {"measurement": "Fold change of gene expression, TUBA", "result": 0.0}, {"measurement": "Net effect of the NBC on fold change, TUBA", "result": 4.7}, {"measurement": "Fold change of gene expression, TUBB", "result": 0.0}, {"measurement": "Net effect of the NBC on fold change, TUBB", "result": 4.8}]}
{"compound": "COc1cc(/C=C/C(=O)CC(=O)/C=C/c2ccc(O)c(OC)c2)ccc1O", "note": "[curcumin]", "values": [{"measurement": "Fold change of gene expression, ACTB", "result": "−5.0"}, {"measurement": "Net effect of the NBC on fold change, ACTB", "result": "−1.2"}, {"measurement": "Fold change of gene expression, ACTR3", "result": "−1.0"}, {"measurement": "Net effect of the NBC on fold change, ACTR3", "result": "−4.0"}, {"measurement": "Fold change of gene expression, ADK", "result": "−4.3"}, {"measurement": "Net effect of the NBC on fold change, ADK", "result": "−1.4"}, {"measurement": "Fold change of gene expression, ANKRD10", "result": "−7.0"}, {"measurement": "Net effect of the NBC on fold change, ANKRD10", "result": "−1.8"}, {"measurement": "Fold change of gene expression, CAV1", "result": "−3.0"}, {"measurement": "Net effect of the NBC on fold change, CAV1", "result": 1.8}, {"measurement": "Fold change of gene expression, CDH11", "result": "−6.0"}, {"measurement": "Net effect of the NBC on fold change, CDH11", "result": 0.9}, {"measurement": "Fold change of gene expression, COL3A1", "result": "−6.0"}, {"measurement": "Net effect of the NBC on fold change, COL3A1", "result": 3.5}, {"measurement": "Fold change of gene expression, COX1", "result": "−1.0"}, {"measurement": "Net effect of the NBC on fold change, COX1", "result": "−0.2"}, {"measurement": "Fold change of gene expression, COX2", "result": "−15.0"}, {"measurement": "Net effect of the NBC on fold change, COX2", "result": 8.0}, {"measurement": "Fold change of gene expression, IGFBP7", "result": "−1.5"}, {"measurement": "Net effect of the NBC on fold change, IGFBP7", "result": 2.2}, {"measurement": "Fold change of gene expression, IL2", "result": "−4.0"}, {"measurement": "Net effect of the NBC on fold change, IL2", "result": "−1.0"}, {"measurement": "Fold change of gene expression, MMP2", "result": "−6.5"}, {"measurement": "Net effect of the NBC on fold change, MMP2", "result": 3.5}, {"measurement": "Fold change of gene expression, NOS2", "result": "−0.5"}, {"measurement": "Net effect of the NBC on fold change, NOS2", "result": "−0.3"}, {"measurement": "Fold change of gene expression, PTGS-2", "result": "−3.0"}, {"measurement": "Net effect of the NBC on fold change, PTGS-2", "result": "−1.8"}, {"measurement": "Fold change of gene expression, SPARC", "result": "−4.0"}, {"measurement": "Net effect of the NBC on fold change, SPARC", "result": 2.3}, {"measurement": "Fold change of gene expression, STMN1", "result": "−5.0"}, {"measurement": "Net effect of the NBC on fold change, STMN1", "result": 1.2}, {"measurement": "Fold change of gene expression, TIMP1", "result": "−5.0"}, {"measurement": "Net effect of the NBC on fold change, TIMP1", "result": 1.2}, {"measurement": "Fold change of gene expression, TIMP2", "result": "−2.0"}, {"measurement": "Net effect of the NBC on fold change, TIMP2", "result": 0.0}, {"measurement": "Fold change of gene expression, TNF-a", "result": "−14.5"}, {"measurement": "Net effect of the NBC on fold change, TNF-a", "result": "−4.5"}, {"measurement": "Fold change of gene expression, TUBA", "result": "−2.0"}, {"measurement": "Net effect of the NBC on fold change, TUBA", "result": 2.7}, {"measurement": "Fold change of gene expression, TUBB", "result": "−5.0"}, {"measurement": "Net effect of the NBC on fold change, TUBB", "result": "−0.2"}]}
